Assays:
Assay type in all cases: functional, cell-based
A549 = test: Cytotoxicity against human A549 cells by […]
[1] = Cytotoxicity against human MEL28 cells by […]; conditions: SK-MEL-28
HT-29 = test: Cytotoxicity against human HT-29 cells by […]
P388 = test: Cytotoxicity against mouse P388 cells by […]

Measured: IC50

CC(=O)OC[C@@]12[C@@H](OC(=O)c3ccccc3)CC[C@](C)(O)[C@]13OC(C)(C)[C@H]([C@H](OC(C)=O)[C@H]2OC(=O)c1ccccc1)[C@H]3OC(C)=O
> 25 µg/mL: all assays above
